Values joined by “and” are separate entries in the source; they are usually repeats but may differ in a detail not shown here. Equal entries are not always repeated. Inconclusive results and toxic doses are left out.
System: BDF1 mice, P388 leukemia ip, median survival T/C
Test: NCI In Vivo Anticancer Drug Screen. Data for tumor model P388 Leukemia (intraperitoneal) in B6D2F1 (BDF1) mice
Conditions: endpoint: median survival time, higher = longer survival
Outline: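 Steps: implant the tumour, treat one group with compound and another with vehicle, record survival, then divide treated by control.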

[1] = dose: 25.0 mg/kg/injection, schedule: Q01DX009 (ip), vehicle: saline with Tween-80
[2] = dose: 50.0 mg/kg/injection, schedule: Q01DX009 (ip), vehicle: saline with Tween-80
[3] = dose: 100.0 mg/kg/injection, schedule: Q01DX009 (ip), vehicle: saline with Tween-80
[4] = dose: 100.0 mg/kg/injection, schedule: Q01DX009 (ip), vehicle: Klucel (hydroxypropylcellulose) (HPC)
[5] = dose: 100.0 mg/kg/injection, schedule: Q04DX003 (ip), vehicle: Klucel (hydroxypropylcellulose) (HPC)
[6] = dose: 200.0 mg/kg/injection, schedule: Q01DX009 (ip), vehicle: Klucel (hydroxypropylcellulose) (HPC)
[7] = dose: 200.0 mg/kg/injection, schedule: Q04DX003 (ip), vehicle: Klucel (hydroxypropylcellulose) (HPC)
[8] = dose: 400.0 mg/kg/injection, schedule: Q01DX009 (ip), vehicle: Klucel (hydroxypropylcellulose) (HPC)
[9] = dose: 400.0 mg/kg/injection, schedule: Q04DX003 (ip), vehicle: Klucel (hydroxypropylcellulose) (HPC)
[10] = dose: 12.5 mg/kg/injection, schedule: Q01DX009 (ip), vehicle: Klucel (hydroxypropylcellulose) (HPC)
[11] = dose: 12.5 mg/kg/injection, schedule: Q01DX009 (ip), vehicle: saline with Tween-80
[12] = dose: 25.0 mg/kg/injection, schedule: Q01DX009 (ip), vehicle: Klucel (hydroxypropylcellulose) (HPC)
[13] = dose: 50.0 mg/kg/injection, schedule: Q01DX009 (ip), vehicle: Klucel (hydroxypropylcellulose) (HPC)
[14] = dose: 25.0 mg/kg/injection, schedule: Q04DX003 (ip), vehicle: saline with Tween-80
[15] = dose: 12.5 mg/kg/injection, schedule: Q04DX003 (ip), vehicle: Klucel (hydroxypropylcellulose) (HPC)
[16] = dose: 25.0 mg/kg/injection, schedule: Q04DX003 (ip), vehicle: Klucel (hydroxypropylcellulose) (HPC)
[17] = dose: 50.0 mg/kg/injection, schedule: Q04DX003 (ip), vehicle: Klucel (hydroxypropylcellulose) (HPC)

Structure (SMILES): CCOC(=O)c1c(C)[nH]c(C)c1-c1ccccc1
- T/C (dose: 100.0 mg/kg/injection, schedule: Q01DX001 (ip), vehicle: Klucel (hydroxypropylcellulose) (HPC)): 109 % of control
- T/C (dose: 200.0 mg/kg/injection, schedule: Q01DX001 (ip), vehicle: Klucel (hydroxypropylcellulose) (HPC)): 109 % of control
- T/C (dose: 400.0 mg/kg/injection, schedule: Q01DX001 (ip), vehicle: Klucel (hydroxypropylcellulose) (HPC)): 109 % of control

Structure (SMILES): O=C(NC(=O)c1c(F)cccc1F)Nc1ccc([N+](=O)[O-])cn1
- T/C [1]: 96 % of control
- T/C [2]: 90 % of control
- T/C [3]: 90 % of control

Structure (SMILES): CO[C@H](C)[C@](O)(C(=O)OCC1=CCN2CC[C@@H](O)[C@H]12)C(C)C
- T/C (dose: 25.0 mg/kg/injection, schedule: Q01DX010 (ip), vehicle: carboxymethylcellulose (CMC)): 111 % of control
- T/C (dose: 50.0 mg/kg/injection, schedule: Q01DX010 (ip), vehicle: carboxymethylcellulose (CMC)): 111 % of control
- T/C (dose: 100.0 mg/kg/injection, schedule: Q01DX010 (ip), vehicle: carboxymethylcellulose (CMC)): 111 % of control

Structure (SMILES): COc1cc2c(cc1OC)-c1ncnc(-c3ccccc3)c1C2
- T/C [4]: 100 % of control
- T/C [5]: 108 % of control
- T/C [6]: 100 % of control
- T/C [7]: 91 % of control
- T/C [8]: 95 % of control
- T/C [9]: 95 % of control

Structure (SMILES): COc1cc2c(cc1OC)-c1c(C)c3ccc(OC)c(NCc4ccccc4)c3c[n+]1CC2
- T/C (dose: 1.56 mg/kg/injection, schedule: Q04DX003 (ip), vehicle: other): 107 % of control
- T/C (dose: 3.13 mg/kg/injection, schedule: Q04DX003 (ip), vehicle: other): 100 % of control
- T/C (dose: 6.25 mg/kg/injection, schedule: Q04DX003 (ip), vehicle: other): 90 % of control

Structure (SMILES): O=[N+]([O-])c1ccc(N=Nc2c(Cl)cc(O)cc2Cl)cc1
- T/C (dose: 3.13 mg/kg/injection, schedule: Q01DX009 (ip), vehicle: saline with Tween-80): 95 % of control
- T/C (dose: 6.25 mg/kg/injection, schedule: Q01DX009 (ip), vehicle: Klucel (hydroxypropylcellulose) (HPC)): 115 % of control
- T/C (dose: 6.25 mg/kg/injection, schedule: Q01DX009 (ip), vehicle: saline with Tween-80): 95 % of control
- T/C [10]: 110 % of control
- T/C [11]: 95 % of control
- T/C [12]: 115 % of control
- T/C (dose: 35.0 mg/kg/injection, schedule: Q01DX009 (ip), vehicle: Klucel (hydroxypropylcellulose) (HPC)): 94 % of control
- T/C [13]: 97 % of control
- T/C (dose: 75.0 mg/kg/injection, schedule: Q01DX009 (ip), vehicle: Klucel (hydroxypropylcellulose) (HPC)): 118 % of control
- T/C [3]: 120 % of control
- T/C (dose: 100.0 mg/kg/injection, schedule: Q04DX003 (ip), vehicle: saline sonified): 100 % of control
- T/C (dose: 200.0 mg/kg/injection, schedule: Q04DX003 (ip), vehicle: saline sonified): 100 % of control
- T/C (dose: 400.0 mg/kg/injection, schedule: Q04DX003 (ip), vehicle: saline sonified): 100 % of control

Structure (SMILES): CC(=O)CC(=O)NCCCN1CCCCC1
- T/C [11]: 92 % of control
- T/C [1]: 88 % of control
- T/C [14]: 96 % of control
- T/C (dose: 50.0 mg/kg/injection, schedule: Q04DX003 (ip), vehicle: saline with Tween-80): 88 % of control

Structure (SMILES): O=C=Nc1ccc(CCc2ccc(N=C=O)cc2)cc1
- T/C [2]: 110 % of control
- T/C [3]: 120 % of control

Structure (SMILES): NN(C(=O)c1ccccc1)c1ccccc1
- T/C [15]: 100 % of control
- T/C [12]: 110 % of control
- T/C [16]: 100 % of control
- T/C [13]: 100 % of control
- T/C [17]: 104 % of control
- T/C (dose: 75.0 mg/kg/injection, schedule: Q04DX003 (ip), vehicle: Klucel (hydroxypropylcellulose) (HPC)): 104 % of control
- T/C (dose: 115.0 mg/kg/injection, schedule: Q04DX003 (ip), vehicle: Klucel (hydroxypropylcellulose) (HPC)): 104 % of control
- T/C (dose: 170.0 mg/kg/injection, schedule: Q04DX003 (ip), vehicle: Klucel (hydroxypropylcellulose) (HPC)): 109 % of control
- T/C (dose: 255.0 mg/kg/injection, schedule: Q04DX003 (ip), vehicle: Klucel (hydroxypropylcellulose) (HPC)): 105 % of control
- T/C (dose: 385.0 mg/kg/injection, schedule: Q04DX003 (ip), vehicle: Klucel (hydroxypropylcellulose) (HPC)): 110 % of control

Structure (SMILES): C/C(N=Nc1ccc([N+](=O)[O-])cc1)=N\Nc1ccccc1
- T/C [4]: 94 % of control
- T/C [5]: 91 % of control
- T/C [6]: 100 % of control
- T/C [7]: 87 % of control
- T/C [8]: 100 % of control
- T/C [9]: 104 % of control

Structure (SMILES): NC(=O)C(N)=O
- T/C [4]: 103 % of control
- T/C [6]: 93 % of control
- T/C [8]: 109 % of control

Structure (SMILES): CC(=O)OC1CC2(O)C(CCC3(C)C(c4ccc(=O)oc4)CCC32O)C2(C)C1=CC(O)C1OC12 (stereo unspecified)
- T/C (dose: 0.05 mg/kg/injection, schedule: Q01DX010 (ip), vehicle: carboxymethylcellulose (CMC)): 105 % of control
- T/C (dose: 0.1 mg/kg/injection, schedule: Q01DX010 (ip), vehicle: carboxymethylcellulose (CMC)): 95 % of control
- T/C (dose: 0.2 mg/kg/injection, schedule: Q01DX010 (ip), vehicle: carboxymethylcellulose (CMC)): 105 % of control
- T/C (dose: 0.5 mg/kg/injection, schedule: Q01DX010 (ip), vehicle: carboxymethylcellulose (CMC)): 90 % of control

Structure (SMILES): COc1cc(C=Nc2ccc(C(=O)O)c(O)c2)ccc1N(CCCl)CCCl
- T/C (dose: 3.6 mg/kg/injection, schedule: Q01DX009 (ip), vehicle: Klucel (hydroxypropylcellulose) (HPC)): 196 % of control
- T/C (dose: 5.4 mg/kg/injection, schedule: Q01DX009 (ip), vehicle: Klucel (hydroxypropylcellulose) (HPC)): 94 % of control
- T/C (dose: 8.2 mg/kg/injection, schedule: Q01DX009 (ip), vehicle: Klucel (hydroxypropylcellulose) (HPC)): 245 % of control
- T/C (dose: 8.3 mg/kg/injection, schedule: Q01DX009 (ip), vehicle: Klucel (hydroxypropylcellulose) (HPC)): 184 % of control
- T/C [10]: 230 % of control and 272 % of control and 213 % of control
- T/C [15]: 115 % of control
- T/C (dose: 18.75 mg/kg/injection, schedule: Q01DX009 (ip), vehicle: Klucel (hydroxypropylcellulose) (HPC)): 96 % of control
- T/C [16]: 115 % of control
- T/C [17]: 100 % of control

Structure (SMILES): O=C(NC(=O)c1c(F)cccc1F)Nc1cccc(C(F)(F)F)c1
- T/C [1]: 97 % of control
- T/C [2]: 99 % of control
- T/C [3]: 97 % of control

Structure (SMILES): ClCCN(CCCl)CCCN1c2ccccc2Sc2ccccc21
- T/C (dose: 3.12 mg/kg/injection, schedule: Q04DX003 (ip), vehicle: saline with Tween-80): 150 % of control
- T/C (dose: 12.5 mg/kg/injection, schedule: Q04DX003 (ip), vehicle: saline with Tween-80): 158 % of control and 169 % of control
- T/C [14]: 152 % of control

Structure (SMILES): Cc1ccc(S(=O)(=O)c2ccc(Sc3cccc[n+]3[O-])c3no[n+]([O-])c23)cc1
- T/C (dose: 15.0 mg/kg/injection, schedule: Q01DX009 (ip), vehicle: saline with Tween-80): 97 % of control
- T/C (dose: 30.0 mg/kg/injection, schedule: Q01DX009 (ip), vehicle: saline with Tween-80): 114 % of control
- T/C (dose: 60.0 mg/kg/injection, schedule: Q01DX009 (ip), vehicle: saline with Tween-80): 90 % of control

Structure (SMILES): CC(C)NC(=O)c1ccccc1Sc1ccccc1C(=O)NC(C)C
- T/C (dose: 100.0 mg/kg/injection, schedule: Q04DX003 (ip), vehicle: saline with Tween-80): 105 % of control
- T/C (dose: 200.0 mg/kg/injection, schedule: Q04DX003 (ip), vehicle: saline with Tween-80): 105 % of control
- T/C (dose: 400.0 mg/kg/injection, schedule: Q04DX003 (ip), vehicle: saline with Tween-80): 99 % of control

Structure (SMILES): COc1ccc(C(=O)C(O)c2ccccc2)cc1 (stereo unspecified)
- T/C (dose: 100.0 mg/kg/injection, schedule: Q04DX003 (ip), vehicle: other): 100 % of control
- T/C (dose: 200.0 mg/kg/injection, schedule: Q04DX003 (ip), vehicle: other): 100 % of control

Structure (SMILES): O=C1CN(Cc2ccc(Cl)cc2)CC(=O)N2CCCN12
- T/C (dose: 50.0 mg/kg/injection, schedule: Q01DX005 (ip), vehicle: saline with Tween-80): 92 % of control

Structure (SMILES): C[C@]12CCC(=O)C=C1CC[C@@H]1[C@@H]2[C@@H](O)C[C@@]2(C)[C@H]1CC[C@]2(C)O
- T/C [3]: 86 % of control

Structure (SMILES): CCOC(=O)C(C(=O)OCC)C1c2ccccc2C(=NO)c2ccccc21 (stereo unspecified)
- T/C [4]: 100 % of control
- T/C [5]: 112 % of control
- T/C [6]: 109 % of control
- T/C [7]: 104 % of control
- T/C [8]: 109 % of control
- T/C [9]: 91 % of control
